Where “and” joins values, the source holds several entries; their conditions need not be identical. Equal values may be shown once.
Key:
[1] = tested on: tomato seedlings p1002-18-3; experiment: Transient induction: tomato seedlings on 20 μM ACC, inducer removed after 2-14 days; type: in vivo; conditions: for Hypocotyl (mm) / Root (mm) / Hypocotyl Percent (%) / Root Percent (%): p1002-18-3 tomato; for Hypocotyl (mm) / Root (mm): dark, 14 day old seedlings
Experimental: After 14 days growth in the dark, hypocotyls and roots were measured to assess ethylene insensitivity. Ethylene insensitive seedlings would be expected to have longer hypocotyls and roots. […] Thus, root and hypocotyl growth of the reversed seedlings should be intermediate between the sensitive and insensitive seedlings.

[2] = tested on: transformed tobacco plants; experiment: Triple response assay, shoot length of transformed tobacco shoots in dark with ethylene; type: in vivo; conditions: tobacco plant 185-3 (VGE), induced, 10 μM inducer, ethylene about 10 ppm, 18 days
[3] = tested on: transformed tomato plants; experiment: Triple response assay, transformed tomato plants with ethylene; type: in vivo; conditions: transgenic tomato with etr1-1 cassettes, 20 μM inducer, dark, 4-8 days
Experimental: A triple response assay (Guzman and Ecker, 1990, cited above, modified as described below) was used to determine the modulation of ethylene sensitivity in the transformed tomato plants. Tomato seed was surface-sterilized and imbibed in 20 μM inducer in the dark for 4 days at 4° C. The seed was plated on 0.5× MS with 1% sucrose and 20 μM inducer and for mutant receptors treated with 10 ppm ethylene or 1 ppm ethylene for wild-type receptors and grown in the dark for 4-8 days at 21° C. The response to ethylene was scored on the last day.

[4] = tested on: transformed tobacco plants; experiment: Triple response assay, shoot length of transformed tobacco shoots in dark with ethylene; type: in vivo; conditions: for Shoot Length Avg (cm) / Shoot Length (cm): induced, 10 μM inducer, ethylene about 10 ppm, 18 days; for Shoot Length (cm): single shoots
Experimental: A triple response assay as described in Guzman and Ecker 1990 The Plant Cell, 2:513-523, modified as provided herein, was conducted to determine the effect of the modulation of ethylene sensitivity in the transformed tobacco plants of Example 2. From each transformed plant designated 185-1, 184-3, 185-8, 185-11, 187-7, 187-13, 187-17 and 187-21, two leaves from each plant were cut into small pieces. These pieces were plated onto MSS plates containing […] kanamycin, with or without 10 μM inducer, i.e., 3,5 Dimethyl-benzoic acid N-(1-ethyl-2,2-dimethyl-propyl)-N′-(3S-hydroxymethyl-5-methyl-2,3-dihydro-benzo[1,4]dioxine-6-carbonyl)hydrazide. MSS plates without antibiotic or inducer were used as controls.
These plated plant tissues were grown at 25° C. with light in growth chambers to induce shoots. Shoots were transferred into fresh plates for about two weeks for continued growth at 25° C. Each callus was then transferred to new culture dishes with or without inducer. Each callus with shoots starting to initiate was split into several plates with approximately equal amounts of callus per plate.
The plates were then separated into groups for the following treatment protocols which lasted for 18 days
Shoot length was measured, and the relative assessment of the efficacy of the transgenic plants prepared according to the Examples based on raw data for shoot length is reported in Table I for conditions (a) through (d) above. Typically, wild-type shoots exposed to ethylene in the dark display stunted growth. Ethylene insensitive plants under these conditions should show elongated growth. […] Shoots grown in the light produced uninterpretable data.

ACC oxidase = ACC oxidase expression in excised corn stalk sheath tissue, quantitative PCR; type: cell-based; conditions: for ACC Oxidase Expression (relative): normalized to 0 inducer/0 ACC; for AVG ACO Expression: average of corn lines
Experimental: Corn plants were transformed using the plasmids for Example 1 by microparticle bombardment. Putative transformants were selected using either actinonin or bialaphos and confirmed by PCR analysis. Positive transformants were backcrossed to inbred B73 to increase vigor. Transgenic corn plants produced as described above were tested for modulation of ethylene sensitivity. Modulation of ethylene sensitivity was determined at the molecular level by exposing plants to ethylene and measuring the change in induction of ethylene-induced genes.
Transgenic corn plants produced as described above were tested for modulation of ethylene sensitivity. Modulation of ethylene sensitivity was determined at the molecular level by exposing plants to ACC, the precursor of ethylene and measuring the change in induction of ethylene-induced genes. Stalk sheath tissue was excised from transgenic T0 corn plants growing in a green house and used in an in vitro bioassay. Excised tissue was treated with either water or 20 μM inducer for 2 days to induce expression of the ethylene insensitive etr1-1 transgene. Following the 2 day induction period, the tissue was treated for one day with 0, 1 or 10 μM ACC to produce ethylene and then harvested. Harvested tissue was immediately placed in RNAlater (Ambion). Total RNA was prepared from the tissue using MagMAX-96 Total RNA Isolation Kit (Ambion). Induction of an ethylene inducible gene (ACC oxidase) was measured using quantitative PCR on an Applied Biosystems 7900 HT Fast Real-Time PCR system (ABI). TaqMan Assay Kit (ABI) was used for reverse transcriptase (RT) and PCR using manufacturer recommended protocols. Corn 18s was used as an internal control to normalize expression for each sample.
Sequences for the primers and probes were as follows: […]
In order to determine gene expression, ACC oxidase expression in the 0 μM inducer plus 0 μM ACC control treatment was normalized for each respective corn line.

[5] = 10 μM inducer, 2 days with inducer, 12 days without, 20 μM ACC
[6] = 10 μM inducer, 2 days with inducer, 12 days without, relative to 14 days with inducer
[7] = 10 μM inducer, 4 days with inducer, 10 days without, 20 μM ACC
[8] = 10 μM inducer, 4 days with inducer, 10 days without, relative to 14 days with inducer
[9] = 10 μM inducer, 6 days with inducer, 8 days without, 20 μM ACC
[10] = 10 μM inducer, 6 days with inducer, 8 days without, relative to 14 days with inducer
[11] = 10 μM inducer, 8 days with inducer, 6 days without, 20 μM ACC
[12] = 10 μM inducer, 8 days with inducer, 6 days without, relative to 14 days with inducer
[13] = 10 μM inducer, 14 days with inducer, 0 days without (reference)
[14] = 10 μM inducer, 14 days with inducer, 0 days without, 20 μM ACC

CCC(N(NC(=O)c1ccc2c(c1C)O[C@@H](CO)CO2)C(=O)c1cc(C)cc(C)c1)C(C)(C)C (stereo partly drawn) [inducer, 3,5 Dimethyl-benzoic acid N-(1-ethyl-2,2-dimethyl-propyl)-N′-(3S-hydroxymethyl-5-methyl-2,3-dihydro-benzo[1,4]dioxine-6-carbonyl)hydrazide]
Hypocotyl (mm) [1, 5]: 16.9 ± 4.30 mm | Root (mm) [1, 5]: 26.2 ± 15.3 mm | Hypocotyl Percent (%) [1, 6]: 63.8% | Root Percent (%) [1, 6]: 69.9% | Hypocotyl (mm) [1, 7]: 19.5 ± 7.52 mm | Root (mm) [1, 7]: 28.7 ± 14.7 mm | Hypocotyl Percent (%) [1, 8]: 73.6% | Root Percent (%) [1, 8]: 76.5% | Hypocotyl (mm) [1, 9]: 26.8 ± 6.27 mm | Root (mm) [1, 9]: 29.8 ± 9.61 mm | Hypocotyl Percent (%) [1, 10]: 101% | Root Percent (%) [1, 10]: 79.5% | Hypocotyl (mm) [1, 11]: 26.0 ± 10.3 mm | Root (mm) [1, 11]: 38.3 ± 9.15 mm | Hypocotyl Percent (%) [1, 12]: 98.1% | Root Percent (%) [1, 12]: 102% | Hypocotyl Percent (%) [1, 13]: 100% | Root Percent (%) [1, 13]: 100% | Hypocotyl (mm) [1, 14]: 26.5 ± 7.51 mm | Root (mm) [1, 14]: 37.5 ± 13.2 mm | duration of induction sufficient for a full state of ethylene insensitivity ([1]; tomato p1002 line, 10 μM inducer, 20 μM ACC): Six days was sufficient to induce a full state of ethylene insensitivity | reversal after removal of inducer ([1]; tomato p1002 line, induced for 2 or 4 days then removed from inducer, compared to non-induced control): showed return to a state of ethylene sensitivity | Shoot Length Avg (cm) [2]: 5.6 cm | ethylene insensitivity, based on increased shoot length and/or altered root growth compared to non-induced transgenic plants [3]: demonstrated ethylene insensitivity | Shoot Length Avg (cm) ([4]; tobacco plant 185-1 (VGE)): 2.8 cm | Shoot Length Avg (cm) ([4]; tobacco plant 185-8 (VGE)): 4.6 cm | Shoot Length (cm) ([4]; tobacco plant 185-8 (VGE)): 5.5 cm and 5.0 cm and 4.0 cm and 4.4 cm and 4.3 cm | Shoot Length Avg (cm) ([4]; tobacco plant 185-11 (VGE)): 4.0 cm | Shoot Length (cm) ([4]; tobacco plant 185-11 (VGE)): 4.0 cm and 4.5 cm and 3.0 cm | Shoot Length Avg (cm) ([4]; tobacco plant 187-7 (GVE)): 3.0 cm | Shoot Length (cm) ([4]; tobacco plant 187-7 (GVE)): 3.0 cm | Shoot Length Avg (cm) ([4]; tobacco plant 187-13 (GVE)): 3.9 cm | Shoot Length (cm) ([4]; tobacco plant 187-13 (GVE)): 4.0 cm and 3.5 cm and 5.0 cm and 3.0 cm | Shoot Length Avg (cm) ([4]; tobacco plant 187-17 (GVE)): 4.3 cm | Shoot Length (cm) ([4]; tobacco plant 187-17 (GVE)): 5.6 cm and 3.5 cm | Shoot Length Avg (cm) ([4]; tobacco plant 187-21 (GVE)): 3.4 cm | Shoot Length (cm) ([4]; tobacco plant 187-21 (GVE)): 4.0 cm and 3.5 cm and 3.0 cm and 2.5 cm | ethylene insensitivity, based on increased shoot length compared to non-induced transgenic plants ([4]; transgenic tobacco with etr1-1 cassettes, presence of inducer, ethylene): demonstrated ethylene insensitivity | ACC Oxidase Expression (relative) (ACC oxidase; Corn Line 4.5, 20 μM inducer/0 ACC): 1.351 | ACC Oxidase Expression (relative) (ACC oxidase; Corn Line 4.5, 20 μM inducer/1 μM ACC): 1.081 | ACC Oxidase Expression (relative) (ACC oxidase; Corn Line 4.5, 20 μM inducer/10 μM ACC): 0.4184 | ACC Oxidase Expression (relative) (ACC oxidase; Corn Line 4.6, 20 μM inducer/0 ACC): 1.148 | ACC Oxidase Expression (relative) (ACC oxidase; Corn Line 4.6, 20 μM inducer/1 μM ACC): 0.7581 | ACC Oxidase Expression (relative) (ACC oxidase; Corn Line 4.6, 20 μM inducer/10 μM ACC): 0.3348 | ACC Oxidase Expression (relative) (ACC oxidase; Corn Line 4.7, 20 μM inducer/0 ACC): 0.7452 | ACC Oxidase Expression (relative) (ACC oxidase; Corn Line 4.7, 20 μM inducer/1 μM ACC): 1.388 | ACC Oxidase Expression (relative) (ACC oxidase; Corn Line 4.7, 20 μM inducer/10 μM ACC): 0.2557 | ACC Oxidase Expression (relative) (ACC oxidase; Corn Line 10.2, 20 μM inducer/0 ACC): 1.378 | ACC Oxidase Expression (relative) (ACC oxidase; Corn Line 10.2, 20 μM inducer/1 μM ACC): 0.4928 | ACC Oxidase Expression (relative) (ACC oxidase; Corn Line 10.2, 20 μM inducer/10 μM ACC): 0.6761 | ACC Oxidase Expression (relative) (ACC oxidase; Corn Line 10.4, 20 μM inducer/0 ACC): 0.3437 | ACC Oxidase Expression (relative) (ACC oxidase; Corn Line 10.4, 20 μM inducer/1 μM ACC): 0.3591 | ACC Oxidase Expression (relative) (ACC oxidase; Corn Line 10.4, 20 μM inducer/10 μM ACC): 1.821 | ACC Oxidase Expression (relative) (ACC oxidase; Corn Line 10.5, 20 μM inducer/0 ACC): 0.6804 | ACC Oxidase Expression (relative) (ACC oxidase; Corn Line 10.5, 20 μM inducer/1 μM ACC): 0.06813 | ACC Oxidase Expression (relative) (ACC oxidase; Corn Line 10.5, 20 μM inducer/10 μM ACC): 0.1983 | ACC Oxidase Expression (relative) (ACC oxidase; Corn Line B73, 20 μM inducer/0 ACC): 1.964 | ACC Oxidase Expression (relative) (ACC oxidase; Corn Line B73, 20 μM inducer/1 μM ACC): 0.09506 | ACC Oxidase Expression (relative) (ACC oxidase; Corn Line B73, 20 μM inducer/10 μM ACC): 0.2589 | AVG ACO Expression (ACC oxidase; 20 μM inducer/0 ACC): 1.087 | AVG ACO Expression (ACC oxidase; 20 μM inducer/1 μM ACC): 0.6061 | AVG ACO Expression (ACC oxidase; 20 μM inducer/10 μM ACC): 0.5662 | average expression of ACC oxidase in the transgenic corn lines (ACC oxidase; presence of inducer plus ACC): repressed | ethylene insensitivity, based on decreased expression of ethylene inducible genes (ACC oxidase; transgenic corn with etr1-1 cassettes, presence of inducing compound, exposed to ethylene): demonstrated ethylene insensitivity
